According to US20260242419A1, “A CYCLIC PEPTIDE FOR TRAPPING INTERLEUKIN-1 BETA” (Merck Sharp & Dohme LLC, priority 2023, published 2026):
Starred links: 1 amine or outer side, 2 acyl side, 3 side chain; linkers in the order of their positions; H or OH if unused. Non-standard residues stand in square brackets, D forms with d. Residues, ends and D or L forms follow the SMILES beside them. dPro(4R-(4-pyridylmethyl)) = O=C(O)[C@H]1C[C@@H](Cc2ccncc2)CN1; dPro(3S-(4-Br-benzyl)) = O=C(O)[C@@H]1NCC[C@@H]1Cc1ccc(Br)cc1; Trp(βS-Me,4-F) = C[C@@H](c1c[nH]c2cccc(F)c12)[C@H](N)C(=O)O; Bip(4'-COOH) = N[C@@H](Cc1ccc(-c2ccc(C(=O)O)cc2)cc1)C(=O)O; Ala(1-bicyclo(1.1.1)pentyl) = N[C@@H](CC12CC(C1)C2)C(=O)O; X28 = CC(=O)N1CCN(c2ncc(C[C@H](N[*:1])C(=O)[*:2])cn2)CC1; dPro(4R-Bzl(4-F)) = O=C(O)[C@H]1C[C@@H](Cc2ccc(F)cc2)CN1; Ala(pyrimidin-5-yl) = N[C@@H](Cc1cncnc1)C(=O)O; Phe(4-COOH) = N[C@@H](Cc1ccc(C(=O)O)cc1)C(=O)O; Pro(cis-4-F) = O=C(O)[C@@H]1C[C@H](F)CN1; AEF = NCCOc1ccc(C[C@H](N)C(=O)O)cc1; 4Pal = N[C@@H](Cc1ccncc1)C(=O)O; Dab = NCC[C@H](N)C(=O)O; Dap = NC[C@H](N)C(=O)O; Aib = CC(C)(N)C(=O)O

Target: T1, IL-1β (Homo sapiens, UniProt P01584)
T1 construct: purchased BioLegend 579404
Assay: IL-6 assay in MRC5 cells: inhibition of IL-1β induced IL-6 secretion (AlphaLISA)
Type: cell-based
Conditions: inhibition of IL-1β induced IL-6 secretion in MRC5 cells; read-out: MRC5 IC50
How it was run: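 Compound was pre-incubated 1 h at ambient temperature with recombinant human IL-1β at 2λ EC80 before adding human lung fibroblast MRC5 cells (3000/well) in EMEM with 0.025% BSA. After overnight culture at 37 °C, 5% CO2, secreted IL-6 in conditioned medium was measured by AlphaLISA; IC50 from 4-parameter logistic fits.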

T1 sequence (P01584 117-269): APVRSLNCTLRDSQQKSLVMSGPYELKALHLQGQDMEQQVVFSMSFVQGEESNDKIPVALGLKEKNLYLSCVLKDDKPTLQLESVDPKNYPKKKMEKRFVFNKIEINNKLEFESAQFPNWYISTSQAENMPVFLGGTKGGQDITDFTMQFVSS

Row | IC50 [nM] | SMILES
1 | 0.048 | CC(=O)N1CCN(c2ncc(C[C@@H]3NC(=O)[C@H]4C[C@@H](Cc5ccc(F)cc5)CN4C(=O)CNC(=O)[C@H](CCN)NC(=O)[C@H](CCC(N)=O)NC(=O)[C@H](Cc4cncnc4)NC(=O)C(C)(C)NC(=O)[C@H](Cc4c[nH]c5ccccc45)NC(=O)[C@H](CCC(=O)O)NC(=O)C(C)(C)NC(=O)[C@H]([C@@H](C)c4c[nH]c5cccc(F)c45)NC(=O)[C@@H]4C[C@H](F)CN4C(=O)CNC(=O)[C@H](Cc4ccc(C(=O)O)cc4)NC(=O)[C@H](Cc4ccncc4)NC3=O)cn2)CC1 [Example 40] (cyclo([X28][4Pal][Phe(4-COOH)]G[Pro(cis-4-F)][Trp(βS-Me,4-F)][Aib]EW[Aib][Ala(pyrimidin-5-yl)]Q[Dab]G[dPro(4R-Bzl(4-F))]))
2 | 0.029 | C[C@@H]1NC(=O)C(C)(C)NC(=O)[C@H]([C@@H](C)c2c[nH]c3cccc(F)c23)NC(=O)[C@@H]2C[C@H](F)CN2C(=O)CNC(=O)[C@H](Cc2ccc(C(=O)O)cc2)NC(=O)[C@H](Cc2ccncc2)NC(=O)[C@H](Cc2ccc(-c3ccc(C(=O)O)cc3)cc2)NC(=O)[C@H]2C[C@@H](Cc3ccncc3)CN2C(=O)CNC(=O)[C@H](CCN)NC(=O)[C@H](CCC(N)=O)NC(=O)[C@H](Cc2cncnc2)NC(=O)C(C)(C)NC(=O)[C@H](Cc2c[nH]c3ccccc23)NC1=O [Example 41] (cyclo([4Pal][Phe(4-COOH)]G[Pro(cis-4-F)][Trp(βS-Me,4-F)][Aib]AW[Aib][Ala(pyrimidin-5-yl)]Q[Dab]G[dPro(4R-(4-pyridylmethyl))][Bip(4'-COOH)]))
3 | 0.021 | C[C@@H](c1c[nH]c2cccc(F)c12)[C@@H]1NC(=O)[C@@H]2C[C@H](F)CN2C(=O)CNC(=O)[C@H](Cc2ccc(C(=O)O)cc2)NC(=O)[C@H](Cc2ccncc2)NC(=O)[C@H](Cc2ccc(-c3ccc(C(=O)O)cc3)cc2)NC(=O)[C@H]2C[C@@H](Cc3ccncc3)CN2C(=O)CNC(=O)[C@H](CCN)NC(=O)[C@H](CCC(N)=O)NC(=O)[C@H](Cc2cncnc2)NC(=O)C(C)(C)NC(=O)[C@H](Cc2c[nH]c3ccccc23)NC(=O)[C@H](CO)NC(=O)C(C)(C)NC1=O [Example 42] (cyclo([4Pal][Phe(4-COOH)]G[Pro(cis-4-F)][Trp(βS-Me,4-F)][Aib]SW[Aib][Ala(pyrimidin-5-yl)]Q[Dab]G[dPro(4R-(4-pyridylmethyl))][Bip(4'-COOH)]))
4 | 0.026 | C[C@@H](c1c[nH]c2cccc(F)c12)[C@@H]1NC(=O)[C@@H]2C[C@H](F)CN2C(=O)CNC(=O)[C@H](Cc2ccc(C(=O)O)cc2)NC(=O)[C@H](CC23CC(C2)C3)NC(=O)[C@H](Cc2ccc(-c3ccc(C(=O)O)cc3)cc2)NC(=O)[C@H]2C[C@@H](Cc3ccncc3)CN2C(=O)CNC(=O)[C@H](CCN)NC(=O)[C@H](CCC(N)=O)NC(=O)[C@H](Cc2cncnc2)NC(=O)C(C)(C)NC(=O)[C@H](Cc2c[nH]c3ccccc23)NC(=O)[C@H](CCC(=O)O)NC(=O)C(C)(C)NC1=O [Example 43] (cyclo([Bip(4'-COOH)][Ala(1-bicyclo(1.1.1)pentyl)][Phe(4-COOH)]G[Pro(cis-4-F)][Trp(βS-Me,4-F)][Aib]EW[Aib][Ala(pyrimidin-5-yl)]Q[Dab]G[dPro(4R-(4-pyridylmethyl))]))
5 | 0.021 | C[C@@H](c1c[nH]c2cccc(F)c12)[C@@H]1NC(=O)[C@@H]2C[C@H](F)CN2C(=O)CNC(=O)[C@H](Cc2ccc(C(=O)O)cc2)NC(=O)[C@H](CC23CC(C2)C3)NC(=O)[C@H](Cc2ccc(-c3ccc(C(=O)O)cc3)cc2)NC(=O)[C@H]2C[C@@H](Cc3ccncc3)CN2C(=O)CNC(=O)[C@H](CCN)NC(=O)[C@H](CCC(N)=O)NC(=O)[C@H](Cc2cncnc2)NC(=O)C(C)(C)NC(=O)[C@H](Cc2c[nH]c3ccccc23)NC(=O)[C@H](CO)NC(=O)C(C)(C)NC1=O [Example 44] (cyclo([Aib]SW[Aib][Ala(pyrimidin-5-yl)]Q[Dab]G[dPro(4R-(4-pyridylmethyl))][Bip(4'-COOH)][Ala(1-bicyclo(1.1.1)pentyl)][Phe(4-COOH)]G[Pro(cis-4-F)][Trp(βS-Me,4-F)]))
6 | 0.027 | C[C@@H](c1c[nH]c2cccc(F)c12)[C@@H]1NC(=O)[C@@H]2C[C@H](F)CN2C(=O)CNC(=O)[C@H](Cc2ccc(C(=O)O)cc2)NC(=O)[C@H](CC23CC(C2)C3)NC(=O)[C@H](Cc2ccc(-c3ccc(C(=O)O)cc3)cc2)NC(=O)[C@H]2C[C@@H](Cc3ccncc3)CN2C(=O)CNC(=O)[C@H](CCN)NC(=O)[C@H](CCC(N)=O)NC(=O)[C@H](Cc2ccncc2)NC(=O)C(C)(C)NC(=O)[C@H](Cc2c[nH]c3ccccc23)NC(=O)[C@H](CCC(=O)O)NC(=O)C(C)(C)NC1=O [Example 45] (cyclo([Bip(4'-COOH)][Ala(1-bicyclo(1.1.1)pentyl)][Phe(4-COOH)]G[Pro(cis-4-F)][Trp(βS-Me,4-F)][Aib]EW[Aib][4Pal]Q[Dab]G[dPro(4R-(4-pyridylmethyl))]))
7 | 0.034 | C[C@@H](c1c[nH]c2cccc(F)c12)[C@@H]1NC(=O)[C@@H]2C[C@H](F)CN2C(=O)CNC(=O)[C@H](Cc2ccc(C(=O)O)cc2)NC(=O)[C@H](CC23CC(C2)C3)NC(=O)[C@H](Cc2ccc(-c3ccc(C(=O)O)cc3)cc2)NC(=O)[C@H]2C[C@@H](Cc3ccncc3)CN2C(=O)CNC(=O)[C@H](CN)NC(=O)[C@H](CCC(N)=O)NC(=O)[C@H](Cc2cncnc2)NC(=O)C(C)(C)NC(=O)[C@H](Cc2c[nH]c3ccccc23)NC(=O)[C@H](CCC(=O)O)NC(=O)C(C)(C)NC1=O [Example 46] (cyclo([Bip(4'-COOH)][Ala(1-bicyclo(1.1.1)pentyl)][Phe(4-COOH)]G[Pro(cis-4-F)][Trp(βS-Me,4-F)][Aib]EW[Aib][Ala(pyrimidin-5-yl)]Q[Dap]G[dPro(4R-(4-pyridylmethyl))]))
8 | 0.029 | C[C@@H](c1c[nH]c2cccc(F)c12)[C@@H]1NC(=O)[C@@H]2C[C@H](F)CN2C(=O)CNC(=O)[C@H](Cc2ccc(C(=O)O)cc2)NC(=O)[C@H](Cc2ccncc2)NC(=O)[C@H](Cc2ccc(-c3ccc(C(=O)O)cc3)cc2)NC(=O)[C@H]2C[C@@H](Cc3ccncc3)CN2C(=O)CNC(=O)[C@H](CN)NC(=O)[C@H](CCC(N)=O)NC(=O)[C@H](Cc2ccncc2)NC(=O)C(C)(C)NC(=O)[C@H](Cc2c[nH]c3ccccc23)NC(=O)[C@H](CCC(=O)O)NC(=O)C(C)(C)NC1=O [Example 47] (cyclo([Bip(4'-COOH)][4Pal][Phe(4-COOH)]G[Pro(cis-4-F)][Trp(βS-Me,4-F)][Aib]EW[Aib][4Pal]Q[Dap]G[dPro(4R-(4-pyridylmethyl))]))
9 | 0.027 | C[C@@H](c1c[nH]c2cccc(F)c12)[C@@H]1NC(=O)[C@@H]2C[C@H](F)CN2C(=O)CNC(=O)[C@H](Cc2ccc(C(=O)O)cc2)NC(=O)[C@H](CC23CC(C2)C3)NC(=O)[C@H](Cc2ccc(-c3ccc(C(=O)O)cc3)cc2)NC(=O)[C@H]2C[C@@H](Cc3ccncc3)CN2C(=O)CNC(=O)[C@H](CN)NC(=O)[C@H](CCC(N)=O)NC(=O)[C@H](Cc2ccncc2)NC(=O)C(C)(C)NC(=O)[C@H](Cc2c[nH]c3ccccc23)NC(=O)[C@H](CCC(=O)O)NC(=O)C(C)(C)NC1=O [Example 48] (cyclo([4Pal]Q[Dap]G[dPro(4R-(4-pyridylmethyl))][Bip(4'-COOH)][Ala(1-bicyclo(1.1.1)pentyl)][Phe(4-COOH)]G[Pro(cis-4-F)][Trp(βS-Me,4-F)][Aib]EW[Aib]))
10 | 0.047 | CC(=O)NCCOc1ccc(C[C@@H]2NC(=O)[C@H]3C[C@@H](Cc4ccncc4)CN3C(=O)CNC(=O)[C@H](CCN)NC(=O)[C@H](CCC(N)=O)NC(=O)[C@H](Cc3cncnc3)NC(=O)C(C)(C)NC(=O)[C@H](Cc3c[nH]c4ccccc34)NC(=O)[C@H](CCC(=O)O)NC(=O)C(C)(C)NC(=O)[C@H]([C@@H](C)c3c[nH]c4cccc(F)c34)NC(=O)[C@@H]3C[C@H](F)CN3C(=O)CNC(=O)[C@H](Cc3ccc(C(=O)O)cc3)NC(=O)[C@H](Cc3ccncc3)NC2=O)cc1 [Example 49] (cyclo([AEF](Ac)[4Pal][Phe(4-COOH)]G[Pro(cis-4-F)][Trp(βS-Me,4-F)][Aib]EW[Aib][Ala(pyrimidin-5-yl)]Q[Dab]G[dPro(4R-(4-pyridylmethyl))]))
11 | 0.044 | CC(=O)NCCOc1ccc(C[C@@H]2NC(=O)[C@H]3C[C@@H](Cc4ccncc4)CN3C(=O)CNC(=O)[C@H](CCN)NC(=O)[C@H](CCC(N)=O)NC(=O)[C@H](Cc3cncnc3)NC(=O)C(C)(C)NC(=O)[C@H](Cc3c[nH]c4ccccc34)NC(=O)[C@H](CCC(=O)O)NC(=O)C(C)(C)NC(=O)[C@H]([C@@H](C)c3c[nH]c4cccc(F)c34)NC(=O)[C@@H]3C[C@H](F)CN3C(=O)CNC(=O)[C@H](Cc3ccc(C(=O)O)cc3)NC(=O)[C@H](CC34CC(C3)C4)NC2=O)cc1 [Example 50] (cyclo([AEF](Ac)[Ala(1-bicyclo(1.1.1)pentyl)][Phe(4-COOH)]G[Pro(cis-4-F)][Trp(βS-Me,4-F)][Aib]EW[Aib][Ala(pyrimidin-5-yl)]Q[Dab]G[dPro(4R-(4-pyridylmethyl))]))
12 | 0.014 | C[C@@H](c1c[nH]c2cccc(F)c12)[C@@H]1NC(=O)[C@@H]2C[C@H](F)CN2C(=O)CNC(=O)[C@H](Cc2ccc(C(=O)O)cc2)NC(=O)[C@H](Cc2ccncc2)NC(=O)[C@H](Cc2ccc(-c3ccc(C(=O)O)cc3)cc2)NC(=O)[C@H]2[C@@H](Cc3ccc(Br)cc3)CCN2C(=O)CNC(=O)[C@H](CCN)NC(=O)[C@H](CCC(N)=O)NC(=O)[C@H](Cc2cncnc2)NC(=O)C(C)(C)NC(=O)[C@H](Cc2c[nH]c3ccccc23)NC(=O)[C@H](CCC(=O)O)NC(=O)C(C)(C)NC1=O [Example 51] (cyclo([4Pal][Phe(4-COOH)]G[Pro(cis-4-F)][Trp(βS-Me,4-F)][Aib]EW[Aib][Ala(pyrimidin-5-yl)]Q[Dab]G[dPro(3S-(4-Br-benzyl))][Bip(4'-COOH)]))
